From patent US9243027B2, “TGR5 modulators and methods of use thereof” (Intercept Pharmaceuticals, Inc., priority 2007, dated 2016)

Molecular target: T1, TGR5 receptor (Homo sapiens, UniProt Q8TDU6)
T1 sequence (Q8TDU6 1-330): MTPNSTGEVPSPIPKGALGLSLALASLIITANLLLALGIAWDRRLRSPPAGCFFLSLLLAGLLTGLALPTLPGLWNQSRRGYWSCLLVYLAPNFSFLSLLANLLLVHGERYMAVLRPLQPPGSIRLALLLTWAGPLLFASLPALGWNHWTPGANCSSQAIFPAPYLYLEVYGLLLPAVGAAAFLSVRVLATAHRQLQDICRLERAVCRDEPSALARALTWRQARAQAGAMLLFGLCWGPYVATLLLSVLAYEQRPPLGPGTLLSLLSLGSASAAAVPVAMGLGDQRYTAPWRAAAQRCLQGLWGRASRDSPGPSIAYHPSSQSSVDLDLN
Test: Potency and efficacy on TGR5 receptor, in vitro assays (Kawamata 2003)
Type: cell-based
Description: The potency and efficacy of the compounds of the invention on TGR5 receptor was evaluated using in vitro assays.

C[C@H](CCC(=O)O)[C@H]1CCC2C3C(CC[C@@]21C)[C@@]1(C)CC[C@@H](O)C[C@H]1C[C@H]3O (stereo partly shown) [CDCA, ChenoDeoxyCholicAcid]
TGR5 Data Efficacy: 100%
